Counter-ions that a name gives are not always drawn.
Experiments:
[1] = system: KRAS^G12C-mutated H358 cells; assay: H358 cell assay: inhibition of proliferation (CellTiter-Glo, 5 days); format: cell-based; settings: NCI-H358 cells, 5 days incubation
Description: Compounds were assayed for IC50 of inhibition of proliferation of KRAS^G12C-mutated H358 cells.
The main instrument used in this assay was a Nivo multi-label analyzer (PerkinElmer).
2.4 Method of the Assay: • 1) NCI-H358 cells were inoculated in a white 96-well plate, and each well contained 80 μL of cell suspension and 4000 NCI-H358 cells. […] The assay was carried out in duplicate. 78 μL of medium was added to the intermediate plate, and then 2 μL of the serially diluted compound was transferred to each well of the intermediate plate according to the corresponding position. After mixing well, 20 μL per well was transferred to the cell plate. […] The cell plate was incubated in a carbon dioxide incubator for 5 days. Another cell plate was prepared, and the signal value of the cell plate was read on the day of compound addition as the maximum value (Max value in the equation below) to participate in data analysis. 25 μL of cell viability chemiluminescence detection reagent was added to each well of the cell plate, and the plate was incubated at room temperature for 10 minutes to stabilize the luminescence signal. A multi-label analyzer was used for reading the plate. • 3) […]

[2] = system: KRAS^G12C-mutated MIA-PA-CA-2 cells; assay: Inhibition of proliferation of KRAS^G12C-mutated MIA-PA-CA-2 cells (CellTiter-Glo, 72 h); format: cell-based, human
Description: Compounds were assayed for IC50 of inhibition of proliferation of KRAS^G12C-mutated MIA-PA-CA-2 cells.
The main reagent used in this assay included CellTiter-Glo (Promega, Cat. No. G7573).
The main instrument used in this assay was PerkinElmer EnVision multi-function microplate reader.
1.4 Method of the Assay • 1) Adherent cells were digested with trypsin to form a cell suspension, and the cell suspension was counted for later use. • 2) An appropriate amount of cells was added into a centrifuge tube, and a cell culture medium was added to make up the required volume; then the cells were plated to a 96-well plate at a final density of 2000 cells/well, 100 μL of culture medium. • 3) After incubating for 24 hr, the compound was formulated to 10 mM with DMSO, and serially diluted 3-fold with DPBS (Dulbecco's Phosphate Buffered Saline) to 9 points; 10 μL was added to each well in duplicate. 10 μL of DPBS per well was added to the assay control wells (Con). • 4) On the same day, 50 μL of CellTiter Glo was added to another cell culture plate without compounds, and the fluorescence value was read by EnVision. […] The fluorescence value was read by EnVision. • 6) Data analysis: The inhibition rate of cells in each well was calculated according to the following equation: […]

Row | SMILES | IC50 [1] [nM] | IC50 ([2]; 72 h incubation) [nM] | IC50 ([1]; Homo sapiens, 120 h) [nM] | IC50 ([2]; Homo sapiens, MIA PaCa-2, 72 h incubation) [nM]
1 | C=CC(=O)N1CCN(c2nc(OCC3CCCN3C)nc3c2CNC(c2c(Cl)c(C)cc4[nH]ncc24)C3)CC1CC#N (single isomer, unassigned) [4B hydrochloride] | 27 |  |  | 
2 | C=C(F)C(=O)N1CCN(c2nc(OCC3CCCN3C)nc3c2COC(c2c(F)c(N)cc(C)c2C(F)(F)F)C3)CC1CC#N (single isomer, unassigned) [8B hydrochloride] | < 4.6 | 2.7 |  | 
3 | C=CC(=O)N1CCN(c2nc(OCC3CCCN3C)nc3c2COC(c2c(Cl)c(C)cc4[nH]ncc24)C3)CC1CC#N (single isomer, unassigned) [Compound 5B] | 12.9 |  |  | 
4 | C=CC(=O)N1CCN(c2nc(OCC3CCCN3C)nc3c2CN(C)C(c2c(Cl)c(C)cc4[nH]ncc24)C3)CC1CC#N (single isomer, unassigned) [Compound 6A] | < 4.6 |  |  | 
5 | C=CC(=O)N1CCN(c2nc(OCC3CC(F)CN3C)nc3c2COC(c2c(F)c(N)cc(C)c2C(F)(F)F)C3)C(C)C1 (single isomer, unassigned) [Compound 9B] | 5.5 | 6.98 |  | 
6 | C=CC(=O)N1CCN(c2nc(OCC3CCCN3C)nc3c2COC(c2c(F)c(N)cc(C)c2C(F)(F)F)C3)C(C)C1 (single isomer, unassigned) [Compound 18B] | 4.7 | 3.29 |  | 
7 | C=CC(=O)N1CCN(c2nc(OC[C@@H]3CCCN3C)nc3c2CN(C)C(c2cccc4ccccc24)C3)C[C@@H]1CC#N (some centres unmarked) [Compound 1] | 68.2 | 5.21 |  | 
8 | C=CC(=O)N1CCN(c2nc(OC[C@@H]3CCCN3C)nc3c2COC(c2cccc4cccc(Cl)c24)C3)C[C@@H]1CC#N (some centres unmarked) [Compound 2] | 19 |  |  | 
9 | C=CC(=O)N1CCN(c2nc(OC[C@@H]3CCCN3C)nc3c2COC(c2c(F)c(N)cc(C)c2C(F)(F)F)C3)C[C@@H]1C (some centres unmarked) [Compound 10] |  |  | 70 | 
10 | C=CC(=O)N1C[C@H](C)N(c2nc(OC[C@@H]3CCCN3C)nc3c2COC(c2c(F)c(N)cc(C)c2C(F)(F)F)C3)C[C@H]1C (some centres unmarked) [Compound 11] | 6.7 |  |  | 
11 | C=CC(=O)N1CCN(c2nc(OCC34CCCN3CCC4)nc3c2COC(c2c(F)c(N)cc(C)c2C(F)(F)F)C3)C(C)C1 (centres unmarked) [Compound 12] | 2.5 | 1.3 |  | 
12 | C=CC(=O)N1CCN(c2nc(OC[C@@H]3CCCN3C)nc3c2COC(c2c(F)c(N)cc(C)c2C(F)(F)F)C3)[C@H](C)C1 (some centres unmarked) [Compound 13] |  |  | 32.6 | 
13 | C=CC(=O)N1CCN(c2nc(OC[C@@H]3CCCN3C)nc3c2COC(c2c(F)c(N)cc(C)c2C(F)(F)F)C3)C[C@H]1C (some centres unmarked) [Compound 15] |  |  | 9.2 | 
14 | C=C(F)C(=O)N1CCN(c2nc(OCC34CCCN3CCC4)nc3c2COC(c2c(F)c(N)cc(C)c2C(F)(F)F)C3)C[C@@H]1CC#N (some centres unmarked) [Compound 16] |  |  | 1.7 | 2.22

— patent US12012404B2, “Pyrimidoheterocyclic compounds and application thereof” (D3 BIO (WUXI) CO., LTD., priority 2020, dated 2024)
